Measurements as given in patent US4687780A, “Anti-tumor compounds of platinum” (Johnson Matthey PLC, priority 1985, dated 1987).

Columns and labels:
[1] = reported by Harrap; cited from earlier work
malignant tumor = conditions: Phase I, reported by Harrap; cited from earlier work
[2] = pharmacokinetic tests: Pt in blood and cumulative percentage dose in urine, cage wash and faeces after oral administration; format: in vivo, female Balb C^- mice; conditions: oral, JM-8 at 50 mg/kg
Description: (§1) Additionally, the same compounds were tested for activity against ADJ/PC6A plasmacytoma grown subcutaneously in female Balb C^- mice following oral administration as a suspension in arachis oil. Dosage levels were at 100μ mole/kg of body weight for pharmacokinetic tests to establish the extent of absorption into the systemic circulation.
(§2) Results are presented in terms of concentration (μg/ml) of Pt in the blood and cumulative percentage dose in urine, cage wash and faeces, all after specified time intervals. Results for anti-tumor effect are expressed as LD50 (mg/kg), ED90 (mg/kg), and TI (LD50 /ED90). The figures for LD50 (the dose level causing 50% deaths) and ED90 (the dose level causing a 90% reduction in tumor size) are determined by administering dosage levels ranging from lethal to non-tumor inhibitory. The therapeutic index (TI) is an indication of the selectivity of the compound as an anti-tumor agent.

B16 melanoma = test: anti-tumor activity against B16 melanoma in BDF1 female mice, i.p. 9 daily doses; format: in vivo; conditions: 9 daily doses from Day 1
Description: (§3) Compounds according to the invention were screened for anti-tumor activity against L1210 leukaemia and B16 melanoma in mice. The compounds were administered intraperitoneally as solutions or suspensions in water and "Tween" 80 as carrier to CDF1 male mice (L1210) and BDF1 female mice (B16). […] For each dose level, results are quoted in terms of median survival time (MST); the comparative effect (i.e. MST/MST control×100); average weight change (AWC) by Day 5 (L1210) or Day 6 (B16); and the number of mice alive (MA) at Day 5 (L1210) or Day 10 (B16).
(§4) Results were as follows for the compounds as prepared in Examples 3 and 4.
2. B16 (0.5 ml 10% BREI): treatment consisted of 9 daily doses beginning at Day 1.

ADJ/PC6A plasmacytoma = test: activity against ADJ/PC6A plasmacytoma grown subcutaneously in mice, oral administration; format: in vivo, female Balb C^- mice
Description: as §1, §2

L1210 leukaemia = test: anti-tumor activity against L1210 leukaemia in CDF1 male mice, i.p. single dose Day 1; format: in vivo; conditions: single dose Day 1
Description: as §3, §4
1. L1210 (1×10^6 cells): treatment consisted of single dose on Day 1.

[3] = LD50 (dose level causing 50% deaths), oral administration; format: in vivo, female Balb C^- mice; conditions: suspension in arachis oil
Description: as §1, §2

N.N.O=C([O-])C(O)C(=O)[O-].[Pt+2] [JM-5, diammine(2-hydroxymalonato)platinum(II)]
screening results [1]: only moderately promising on screening results

[NH2][Pt]1([NH2])[O]C(=O)C2(CCC2)C(=O)[O]1 [JM-8, reference compound]
Phase I clinical trial outcome (malignant tumor): reasonably promising on a Phase I clinical trial
side-effects in Phase I clinical trial (malignant tumor): myelosuppression and to a lesser extent vomiting remained troublesome
Blood conc. of Pt ([2]; 1 hr): 2.4 μg/ml of whole blood
Blood conc. of Pt ([2]; 2 hrs): 1.7 μg/ml of whole blood
Blood conc. of Pt ([2]; 4 hrs): 0.72 μg/ml of whole blood
Blood conc. of Pt ([2]; 7 hrs): 0.63 μg/ml of whole blood
Blood conc. of Pt ([2]; 24 hrs): 0.25 μg/ml of whole blood
Urine dose (cumulative %) ([2]; 24 hrs): 10.3%
Blood conc. of Pt ([2]; 48 hrs): 0.25 μg/ml of whole blood
Urine dose (cumulative %) ([2]; 48 hrs): 10.8%
% T/C (MST/MST control×100) (B16 melanoma; 2 mg/kg): 112%
% T/C (MST/MST control×100) (B16 melanoma; 4 mg/kg): 115%
% T/C (MST/MST control×100) (B16 melanoma; 8 mg/kg): 150%
% T/C (MST/MST control×100) (B16 melanoma; 16 mg/kg): 176%
% T/C (MST/MST control×100) (B16 melanoma; 32 mg/kg): 176%
therapeutic index TI (LD50/ED90) (ADJ/PC6A plasmacytoma): 2.4
ED90 (dose level causing a 90% reduction in tumor size) (ADJ/PC6A plasmacytoma; suspension in arachis oil): 99 mg/kg
% T/C (MST/MST control×100) (L1210 leukaemia; 4 mg/kg): 100%
% T/C (MST/MST control×100) (L1210 leukaemia; 8 mg/kg): 121%
% T/C (MST/MST control×100) (L1210 leukaemia; 16 mg/kg): 143%
% T/C (MST/MST control×100) (L1210 leukaemia; 32 mg/kg): 171%
% T/C (MST/MST control×100) (L1210 leukaemia; 64 mg/kg): 150%
% T/C (MST/MST control×100) (L1210 leukaemia; 128 mg/kg): 86%
LD50 (dose level causing 50% deaths) [3]: 235 mg/kg

CCC(C(=O)[O-])C(=O)[O-].N.N.[Pt+2] [JM-10, diammine(2-ethylmalonato)-platinum(II)]
screening results [1]: only moderately promising on screening results
